Data from ChEMBL document CHEMBL1201862, “PubChem BioAssay data set” (2004).
Values joined by “and” are separate entries in the source; they are usually repeats but may differ in a detail not shown here. Equal entries are not always repeated. Active and inactive are the calls of the source.

Tests used:
[1] = target: Cytochrome P450 2D6 (Homo sapiens, UniProt P10635);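 further: CYP2D6 member of a cytochrome P450 panel assay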
[2] = target: G-protein coupled receptor 55 (Homo sapiens, UniProt Q9Y2T6); assay: SAR Analysis of Selective Antagonists of GPR55 using an Image-Based Assay - Set 4. [Related pubchem assays (depositor defined):AID2013, AID2026]; assay type: functional;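 further: antagonism of response to 5 µM lysophosphatidylinositol agonist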
G-protein coupled receptor 55, sequence (Q9Y2T6 whole entry): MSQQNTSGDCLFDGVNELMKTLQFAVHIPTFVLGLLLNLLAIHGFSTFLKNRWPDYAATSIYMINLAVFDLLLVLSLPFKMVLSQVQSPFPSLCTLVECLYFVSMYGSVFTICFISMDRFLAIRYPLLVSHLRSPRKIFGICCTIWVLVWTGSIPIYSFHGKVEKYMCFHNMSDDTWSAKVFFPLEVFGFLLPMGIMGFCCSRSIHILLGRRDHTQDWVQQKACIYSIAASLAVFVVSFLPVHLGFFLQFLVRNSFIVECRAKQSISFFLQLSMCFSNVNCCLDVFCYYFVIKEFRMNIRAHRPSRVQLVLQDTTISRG

[3] = target: T1, Cannabinoid receptor 2 (Homo sapiens, UniProt P34972); assay: SAR analysis of antagonists of the Cannabinoid Receptor 2 using an Image-Based Assay - Set 3. [Related pubchem assays (depositor defined):AID2013, AID2026]; assay type: functional
T1 sequence (P34972 whole entry): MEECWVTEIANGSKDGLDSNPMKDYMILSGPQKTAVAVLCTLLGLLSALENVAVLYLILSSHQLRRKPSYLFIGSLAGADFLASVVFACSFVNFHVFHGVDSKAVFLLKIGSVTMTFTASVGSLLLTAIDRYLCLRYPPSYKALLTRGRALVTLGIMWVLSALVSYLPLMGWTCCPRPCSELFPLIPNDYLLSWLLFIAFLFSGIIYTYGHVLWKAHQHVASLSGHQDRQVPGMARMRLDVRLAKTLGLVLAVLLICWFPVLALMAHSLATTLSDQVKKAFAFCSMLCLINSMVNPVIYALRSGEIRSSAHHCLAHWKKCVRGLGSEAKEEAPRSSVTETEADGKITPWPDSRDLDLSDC

[4] = target: T2, G-protein coupled receptor 35 (Homo sapiens, UniProt Q9HC97); assay: SAR analysis of Antagonists of the GPR35 Receptor using an Image-Based Assay - Set 6. [Related pubchem assays (depositor defined):AID2013, AID2026]; assay type: functional
T2 sequence (Q9HC97 whole entry): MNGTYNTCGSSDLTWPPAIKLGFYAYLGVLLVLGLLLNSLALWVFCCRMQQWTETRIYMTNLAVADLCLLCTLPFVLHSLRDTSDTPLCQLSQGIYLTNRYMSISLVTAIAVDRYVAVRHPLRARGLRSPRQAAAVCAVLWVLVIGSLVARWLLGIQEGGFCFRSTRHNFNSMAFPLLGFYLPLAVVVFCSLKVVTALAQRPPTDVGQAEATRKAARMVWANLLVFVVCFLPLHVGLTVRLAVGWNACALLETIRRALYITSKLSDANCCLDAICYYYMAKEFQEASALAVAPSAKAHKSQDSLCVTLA

[5] = target: T3, Cannabinoid receptor 1 (Homo sapiens, UniProt P21554); assay: SAR analysis of agonists of the Cannabinoid Receptor 1 using an Image-Based Assay - Set 4. [Related pubchem assays (depositor defined):AID2013, AID2026]; assay type: functional
T3 sequence (P21554 whole entry): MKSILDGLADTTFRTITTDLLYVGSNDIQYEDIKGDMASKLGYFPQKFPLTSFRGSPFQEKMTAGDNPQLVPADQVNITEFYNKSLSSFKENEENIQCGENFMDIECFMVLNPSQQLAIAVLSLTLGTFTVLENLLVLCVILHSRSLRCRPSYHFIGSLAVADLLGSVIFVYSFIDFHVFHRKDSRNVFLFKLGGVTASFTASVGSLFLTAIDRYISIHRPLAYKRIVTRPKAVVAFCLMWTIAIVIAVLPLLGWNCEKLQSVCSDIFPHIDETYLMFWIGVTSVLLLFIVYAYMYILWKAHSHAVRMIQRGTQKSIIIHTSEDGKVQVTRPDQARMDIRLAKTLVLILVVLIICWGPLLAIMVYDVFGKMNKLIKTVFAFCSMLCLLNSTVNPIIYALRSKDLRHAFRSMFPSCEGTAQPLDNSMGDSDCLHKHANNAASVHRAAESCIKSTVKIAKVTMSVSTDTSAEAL

[6] = target: T4, Streptokinase A (Streptococcus pyogenes serotype M1, UniProt P10520); assay: viability-normalized secreted streptokinase activity reduction – plasminogen activation absorbance, OD405, dose response (AID 1914); assay type: functional, Streptococcus pyogenes M1 GAS;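 further: secreted streptokinase activity via plasminogen activation per viability signal from cell pellet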
T4 sequence (P10520 whole entry): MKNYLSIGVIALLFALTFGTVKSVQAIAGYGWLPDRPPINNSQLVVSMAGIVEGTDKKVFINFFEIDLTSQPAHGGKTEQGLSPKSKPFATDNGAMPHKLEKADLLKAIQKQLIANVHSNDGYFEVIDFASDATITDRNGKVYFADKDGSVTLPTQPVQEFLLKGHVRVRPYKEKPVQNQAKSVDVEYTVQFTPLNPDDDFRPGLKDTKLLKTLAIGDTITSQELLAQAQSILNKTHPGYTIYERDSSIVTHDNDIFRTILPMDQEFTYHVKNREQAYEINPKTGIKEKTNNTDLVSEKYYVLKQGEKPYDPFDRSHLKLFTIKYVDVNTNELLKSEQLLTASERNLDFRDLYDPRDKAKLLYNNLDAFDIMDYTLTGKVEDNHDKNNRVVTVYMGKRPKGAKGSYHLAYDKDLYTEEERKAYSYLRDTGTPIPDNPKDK

[7] = target: T1, Cannabinoid receptor 2; assay: SAR analysis of agonists of the Cannabinoid Receptor 2 using an Image-Based Assay - Set 3. [Related pubchem assays (depositor defined):AID2013, AID2026]; assay type: functional
[8] = target: T3, Cannabinoid receptor 1; assay: SAR analysis of antagonists of the Cannabinoid Receptor 1 using an Image-Based Assay - Set 4. [Related pubchem assays (depositor defined):AID2013, AID2026]; assay type: functional
[9] = target: T2, G-protein coupled receptor 35; assay: SAR analysis of Agonists of the GPR35 Receptor using an Image-Based Assay - Set 4. [Related pubchem assays (depositor defined):AID2013, AID2026]; assay type: functional
[10] = target: CAAX prenyl protease 1 (Saccharomyces cerevisiae S288c, UniProt P47154); assay: yeast CAAX protease Ste24 inhibition – biochemical, S. cerevisiae, plate reader, cherry-pick, dose response (AID 488815)
CAAX prenyl protease 1, sequence (P47154 whole entry): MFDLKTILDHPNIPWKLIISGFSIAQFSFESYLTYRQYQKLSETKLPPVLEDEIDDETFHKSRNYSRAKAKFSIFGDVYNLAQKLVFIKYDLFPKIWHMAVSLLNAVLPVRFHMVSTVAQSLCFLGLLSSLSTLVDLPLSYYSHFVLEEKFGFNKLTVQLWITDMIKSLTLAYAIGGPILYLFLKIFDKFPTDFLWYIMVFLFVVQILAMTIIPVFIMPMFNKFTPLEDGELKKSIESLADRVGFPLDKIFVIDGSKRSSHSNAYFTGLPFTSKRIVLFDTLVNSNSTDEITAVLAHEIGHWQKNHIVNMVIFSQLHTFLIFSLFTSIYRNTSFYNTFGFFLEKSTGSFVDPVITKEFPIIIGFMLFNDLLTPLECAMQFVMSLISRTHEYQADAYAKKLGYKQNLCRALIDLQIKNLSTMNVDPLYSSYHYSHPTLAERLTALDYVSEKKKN

[11] = target: CAAX prenyl protease 2 (Homo sapiens, UniProt Q9Y256); assay: inhibition of Ras-converting CAAX protease Rce1 – biochemical, yeast membranes, quenched-peptide fluorescence, cherry-pick, dose response (AID 588849)
CAAX prenyl protease 2, sequence (Q9Y256 whole entry): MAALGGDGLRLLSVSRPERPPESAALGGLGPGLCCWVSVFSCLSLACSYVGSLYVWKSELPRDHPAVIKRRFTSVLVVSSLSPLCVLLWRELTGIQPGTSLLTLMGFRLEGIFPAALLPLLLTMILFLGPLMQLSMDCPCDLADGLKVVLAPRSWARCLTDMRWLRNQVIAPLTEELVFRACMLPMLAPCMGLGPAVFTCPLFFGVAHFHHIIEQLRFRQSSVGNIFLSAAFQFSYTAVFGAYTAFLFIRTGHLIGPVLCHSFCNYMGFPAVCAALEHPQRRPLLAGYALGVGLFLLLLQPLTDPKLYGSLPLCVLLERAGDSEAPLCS

[12] = target: T5, Heat shock factor protein 1 (Mus musculus, UniProt P38532); assay: decrease of HSF1-responsive luciferase luminescence – cell-based, NIH3T3, dose retest, confirmation (AID 2382); assay type: functional;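 further: NIH3T3 fibroblasts with HSF1-driven luciferase reporter stressed by proteasome inhibitor MG132; luminescence from HSF1-driven luciferase expression after 8 hours of MG132 stress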
T5 sequence (P38532 whole entry): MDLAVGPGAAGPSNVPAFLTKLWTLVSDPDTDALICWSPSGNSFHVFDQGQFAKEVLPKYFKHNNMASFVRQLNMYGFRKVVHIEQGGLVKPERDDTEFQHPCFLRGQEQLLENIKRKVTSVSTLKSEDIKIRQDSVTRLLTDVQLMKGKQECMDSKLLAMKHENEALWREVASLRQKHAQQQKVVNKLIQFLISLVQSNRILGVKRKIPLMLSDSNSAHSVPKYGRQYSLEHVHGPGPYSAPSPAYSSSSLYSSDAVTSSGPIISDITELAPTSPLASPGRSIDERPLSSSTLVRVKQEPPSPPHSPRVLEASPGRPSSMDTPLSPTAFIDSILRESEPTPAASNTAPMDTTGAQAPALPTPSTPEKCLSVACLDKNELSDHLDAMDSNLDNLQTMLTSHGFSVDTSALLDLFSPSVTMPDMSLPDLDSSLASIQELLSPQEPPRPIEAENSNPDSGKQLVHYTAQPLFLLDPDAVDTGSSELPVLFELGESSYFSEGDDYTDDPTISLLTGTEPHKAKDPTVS

[13] = target: T6, Alkaline phosphatase, tissue-nonspecific isozyme (Homo sapiens, UniProt P05186); assay: activation of tissue-nonspecific alkaline phosphatase – biochemical, TNAP isozyme, mouse IAP uHTS hits, selectivity assay for mouse IAP activator project, dose response (AID 488880); assay type: functional
T6 sequence (P05186 whole entry): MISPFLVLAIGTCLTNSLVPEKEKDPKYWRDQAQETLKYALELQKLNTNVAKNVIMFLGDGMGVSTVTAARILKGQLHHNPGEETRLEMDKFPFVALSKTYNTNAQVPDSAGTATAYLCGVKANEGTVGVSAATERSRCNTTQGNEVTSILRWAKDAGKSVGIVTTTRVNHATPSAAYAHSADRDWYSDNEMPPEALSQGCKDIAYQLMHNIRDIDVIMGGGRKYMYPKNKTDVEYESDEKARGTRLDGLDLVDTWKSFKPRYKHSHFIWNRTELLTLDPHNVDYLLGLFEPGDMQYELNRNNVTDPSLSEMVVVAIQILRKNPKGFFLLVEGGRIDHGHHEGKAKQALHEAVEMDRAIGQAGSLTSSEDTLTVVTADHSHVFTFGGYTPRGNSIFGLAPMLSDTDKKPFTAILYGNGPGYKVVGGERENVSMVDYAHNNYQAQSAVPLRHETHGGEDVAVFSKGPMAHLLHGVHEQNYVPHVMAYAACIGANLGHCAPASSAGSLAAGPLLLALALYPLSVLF

[14] = target: Intestinal-type alkaline phosphatase (Homo sapiens, UniProt P09923); assay: activation of human intestinal alkaline phosphatase – biochemical, dose response (AID 488873); assay type: functional
Intestinal-type alkaline phosphatase (Homo sapiens, UniProt P09923), sequence (P09923 whole entry): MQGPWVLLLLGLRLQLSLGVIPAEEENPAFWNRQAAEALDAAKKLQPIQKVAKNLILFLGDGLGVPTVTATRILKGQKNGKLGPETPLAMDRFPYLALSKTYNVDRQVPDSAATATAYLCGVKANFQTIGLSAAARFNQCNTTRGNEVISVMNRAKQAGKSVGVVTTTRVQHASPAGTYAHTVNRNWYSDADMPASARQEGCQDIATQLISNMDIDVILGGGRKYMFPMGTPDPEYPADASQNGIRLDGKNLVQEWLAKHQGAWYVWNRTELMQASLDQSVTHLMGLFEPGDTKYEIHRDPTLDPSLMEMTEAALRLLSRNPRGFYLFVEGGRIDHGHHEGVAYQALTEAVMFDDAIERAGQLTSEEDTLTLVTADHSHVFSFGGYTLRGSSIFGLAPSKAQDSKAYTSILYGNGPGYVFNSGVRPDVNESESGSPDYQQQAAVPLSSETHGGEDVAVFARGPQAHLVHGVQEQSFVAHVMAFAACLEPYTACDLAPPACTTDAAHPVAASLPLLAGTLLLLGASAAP

[15] = target: T7, Intestinal-type alkaline phosphatase (Mus musculus, UniProt P24822); assay: mouse intestinal alkaline phosphatase activators, dose response, biochemical, luminescence, uHTS hits (AID 488783); assay type: functional
T7 sequence (P24822 whole entry): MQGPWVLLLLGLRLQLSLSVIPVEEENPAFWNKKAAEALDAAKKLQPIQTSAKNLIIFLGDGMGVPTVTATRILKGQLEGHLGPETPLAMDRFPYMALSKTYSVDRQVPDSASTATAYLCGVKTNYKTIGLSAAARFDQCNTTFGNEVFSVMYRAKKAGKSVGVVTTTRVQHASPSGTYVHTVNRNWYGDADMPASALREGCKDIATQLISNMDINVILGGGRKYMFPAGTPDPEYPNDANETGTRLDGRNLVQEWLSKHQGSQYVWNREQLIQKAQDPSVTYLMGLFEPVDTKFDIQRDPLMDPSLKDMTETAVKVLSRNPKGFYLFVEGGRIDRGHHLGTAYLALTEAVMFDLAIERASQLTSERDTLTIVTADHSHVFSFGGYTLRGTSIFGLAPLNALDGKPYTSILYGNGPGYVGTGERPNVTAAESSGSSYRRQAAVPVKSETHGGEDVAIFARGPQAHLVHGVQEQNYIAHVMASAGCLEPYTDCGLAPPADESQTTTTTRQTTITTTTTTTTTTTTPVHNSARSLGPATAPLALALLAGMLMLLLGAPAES

[16] = target: T7, Intestinal-type alkaline phosphatase; assay: PubChem AID 488785; assay type: functional
[17] = target: T6, Alkaline phosphatase, tissue-nonspecific isozyme; assay: TNAP enzyme inhibition by screening hits, dose response, selectivity assay for mouse IAP inhibitor project, biochemical, human TNAP, uHTS hits (AID 488906); assay type: functional
[18] = target: Phosphomannomutase 2 (Homo sapiens, UniProt O15305); assay: Counter screen SAR assay for PMM2 inhibitors via a fluorescence intensity assay. [Related pubchem assays (depositor defined):AID1545, AID1574]
[19] = target: Phosphoethanolamine/phosphocholine phosphatase (Homo sapiens, UniProt Q8TCT1); assay: SAR assay for compounds that inhibit PHOSPHO1. [Related pubchem assays (depositor defined):AID1545, AID1565, AID1574]
Phosphoethanolamine/phosphocholine phosphatase, sequence (Q8TCT1 whole entry): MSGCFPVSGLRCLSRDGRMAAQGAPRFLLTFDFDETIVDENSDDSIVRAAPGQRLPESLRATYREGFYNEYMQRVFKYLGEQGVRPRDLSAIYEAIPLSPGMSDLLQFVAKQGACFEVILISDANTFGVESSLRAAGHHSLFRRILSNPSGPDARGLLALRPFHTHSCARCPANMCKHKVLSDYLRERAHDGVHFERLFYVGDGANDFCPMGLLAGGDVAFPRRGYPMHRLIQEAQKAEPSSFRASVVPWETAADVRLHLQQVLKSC

[20] = target: T8, Mannose-6-phosphate isomerase (Homo sapiens, UniProt P34949); assay: phosphomannose isomerase inhibition – biochemical, fluorescence intensity, confirmation (AID 1535)
T8 sequence (P34949 whole entry): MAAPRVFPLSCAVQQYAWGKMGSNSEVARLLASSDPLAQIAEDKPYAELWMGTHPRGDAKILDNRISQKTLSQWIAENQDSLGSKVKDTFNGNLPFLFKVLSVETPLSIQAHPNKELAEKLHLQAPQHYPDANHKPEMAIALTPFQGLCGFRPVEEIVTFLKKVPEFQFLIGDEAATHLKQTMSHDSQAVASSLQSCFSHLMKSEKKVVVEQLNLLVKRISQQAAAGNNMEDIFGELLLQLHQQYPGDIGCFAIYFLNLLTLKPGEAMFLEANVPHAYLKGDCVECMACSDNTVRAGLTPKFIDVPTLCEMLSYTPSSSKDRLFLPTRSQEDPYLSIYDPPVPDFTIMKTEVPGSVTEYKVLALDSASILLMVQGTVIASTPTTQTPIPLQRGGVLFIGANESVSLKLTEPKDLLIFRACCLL

[21] = target: T9, Tyrosine-protein phosphatase non-receptor type 22 (Homo sapiens, UniProt Q9Y2R2); assay type: functional
T9 sequence (Q9Y2R2 whole entry): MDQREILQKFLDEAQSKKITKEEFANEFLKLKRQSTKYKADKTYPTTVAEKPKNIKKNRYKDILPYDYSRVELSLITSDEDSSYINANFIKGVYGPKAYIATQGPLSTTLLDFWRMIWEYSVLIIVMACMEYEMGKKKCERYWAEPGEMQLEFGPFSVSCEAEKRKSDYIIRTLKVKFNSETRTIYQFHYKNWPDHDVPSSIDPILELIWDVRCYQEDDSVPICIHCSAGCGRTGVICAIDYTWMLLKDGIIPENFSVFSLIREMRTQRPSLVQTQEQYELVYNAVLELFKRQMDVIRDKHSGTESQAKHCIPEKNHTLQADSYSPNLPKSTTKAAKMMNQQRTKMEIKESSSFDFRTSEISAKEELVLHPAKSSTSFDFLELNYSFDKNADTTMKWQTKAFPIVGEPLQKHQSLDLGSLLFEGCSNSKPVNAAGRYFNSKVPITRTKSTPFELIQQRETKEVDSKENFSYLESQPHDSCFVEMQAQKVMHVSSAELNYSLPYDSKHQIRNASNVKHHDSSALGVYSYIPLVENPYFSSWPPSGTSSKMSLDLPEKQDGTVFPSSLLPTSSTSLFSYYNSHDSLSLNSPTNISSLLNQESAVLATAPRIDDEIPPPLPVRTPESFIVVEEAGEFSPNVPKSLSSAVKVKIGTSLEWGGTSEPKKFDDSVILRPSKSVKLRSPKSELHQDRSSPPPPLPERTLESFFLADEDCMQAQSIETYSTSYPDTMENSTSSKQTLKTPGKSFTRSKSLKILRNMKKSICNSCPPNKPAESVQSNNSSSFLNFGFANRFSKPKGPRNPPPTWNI

[22] = target: Tyrosine-protein phosphatase non-receptor type 7 (Homo sapiens, UniProt P35236); assay type: functional
Tyrosine-protein phosphatase non-receptor type 7, sequence (P35236 whole entry): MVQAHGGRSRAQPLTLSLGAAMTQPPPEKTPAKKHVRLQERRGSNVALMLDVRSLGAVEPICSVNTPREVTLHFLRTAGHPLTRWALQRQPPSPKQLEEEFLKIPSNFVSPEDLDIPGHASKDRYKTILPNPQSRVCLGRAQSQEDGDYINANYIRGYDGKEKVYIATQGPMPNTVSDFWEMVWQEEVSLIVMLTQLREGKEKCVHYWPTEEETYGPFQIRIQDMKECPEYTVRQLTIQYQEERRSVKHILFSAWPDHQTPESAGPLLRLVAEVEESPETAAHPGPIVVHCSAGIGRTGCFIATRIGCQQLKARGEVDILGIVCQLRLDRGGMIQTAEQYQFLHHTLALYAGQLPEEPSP

[23] = target: T9, Tyrosine-protein phosphatase non-receptor type 22; assay type: functional; remark: listed apart in the source
[24] = HEK-293T viability loss after treatment – luminescence, T-cell screen hits, cytotoxicity control for TCR NF-kB inhibitor project, dose response (AID 489026); assay type: functional, cell-based;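 further: cells exposed to compound about 14 hours before the viability readout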
[25] = test system: HEK293; assay: cells; assay type: functional, cell-based; conditions: Homo sapiens
[26] = target: Nucleotide-binding oligomerization domain-containing protein 1 (Homo sapiens, UniProt Q9Y239); assay: blockers of NOD1 pathway activity – revised, SAR follow-up (AID 2333); assay type: functional
[27] = target: Tumor necrosis factor (Homo sapiens, UniProt P01375); assay: analog potency on TNFa NF-kB signaling – cell-based, revised, SAR follow-up (AID 2337); assay type: functional
Tumor necrosis factor, sequence (P01375 whole entry): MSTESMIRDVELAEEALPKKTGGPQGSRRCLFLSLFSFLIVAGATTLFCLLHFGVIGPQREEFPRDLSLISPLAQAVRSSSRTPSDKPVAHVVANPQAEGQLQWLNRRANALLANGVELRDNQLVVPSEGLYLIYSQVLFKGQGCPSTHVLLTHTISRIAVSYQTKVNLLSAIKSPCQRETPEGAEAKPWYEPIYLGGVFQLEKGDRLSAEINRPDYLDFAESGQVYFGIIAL

[28] = test system: HEK293; assay: inhibition of NOD1-driven NF-kB reporter – cell-based, luminescence, uHTS, primary screen (AID 1578); assay type: functional; conditions: Homo sapiens
[29] = target: Nucleotide-binding oligomerization domain-containing protein 2 (Homo sapiens, UniProt Q9HC29); assay: inhibition of NOD2-driven NF-kB reporter – cell-based, luminescence, uHTS, HEK293 (AID 1566); assay type: functional
[30] = test system: HEK293; assay: cells; assay type: functional, cell-based; conditions: Homo sapiens; remark: listed apart in the source
[31] = test system: HEK293; assay: NOD2 signaling inhibitors in MDP-stimulated cells, cell-based, uHTS, luminescence (AID 2001); assay type: functional; conditions: Homo sapiens
[32] = test system: HEK293; assay: cells; conditions: Homo sapiens
[33] = test system: HEK293; assay: cells; assay type: functional, cell-based; conditions: Homo sapiens; remark: listed apart in the source

Cytochrome P450 2D6, sequence (P10635 whole entry): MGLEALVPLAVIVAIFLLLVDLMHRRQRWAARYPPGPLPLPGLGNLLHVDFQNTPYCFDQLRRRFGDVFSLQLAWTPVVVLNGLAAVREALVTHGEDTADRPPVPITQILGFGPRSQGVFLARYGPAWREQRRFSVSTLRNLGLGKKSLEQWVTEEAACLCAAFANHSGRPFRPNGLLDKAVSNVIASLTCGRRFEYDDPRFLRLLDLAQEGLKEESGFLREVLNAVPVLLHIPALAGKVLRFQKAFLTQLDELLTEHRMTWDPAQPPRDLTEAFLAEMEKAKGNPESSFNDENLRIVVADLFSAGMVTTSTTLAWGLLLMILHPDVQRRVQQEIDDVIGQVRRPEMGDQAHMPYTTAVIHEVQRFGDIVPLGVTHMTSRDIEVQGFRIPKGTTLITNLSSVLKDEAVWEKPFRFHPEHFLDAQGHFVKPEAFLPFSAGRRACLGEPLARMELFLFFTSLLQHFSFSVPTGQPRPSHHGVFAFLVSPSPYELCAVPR

COc1ccc(-c2n[nH]c(C)c2-c2ccc(Cl)cc2)c(O)c1
AC50 [1]: 28.2 µM (inconclusive)
IC50 [2]: 10.9 µM (inactive) and 13.4 µM (inactive)
IC50 [3]: 5.22 µM (active) and 4.83 µM (active)
IC50 [4]: > 32 µM (inactive)
EC50 [5]: > 32 µM (inactive)
EC50 [6]: 9.86 µM (active)
EC50 [7]: 4.81 µM (active) and 5.4 µM (active)
IC50 [8]: 548 nM (active) and 607 nM (active)
EC50 [9]: > 32 µM (inactive)

O=C(NCC1CC1)c1cc(-c2ccccc2)nn1CC1CC(c2cccc([N+](=O)[O-])c2)=NO1 (centres undefined)
AC50 [10]: 6.73 µM (active)
AC50 [11]: 11.7 µM (active)

COc1cc(OC)c(NC(=O)CN(C)S(=O)(=O)c2ccc3nc(O)oc3c2)cc1Cl
EC50 [12]: > 195 µM (not active)
EC50 [13]: 70.7 µM (active)
EC50 [14]: 68.4 µM (active)
EC50 [15]: 51.5 µM (active)

COc1ccc(OC)c(NC(=O)CCNS(=O)(=O)c2ccc3[nH]c(=O)oc3c2)c1
EC50 [14]: > 100 µM (inactive)
IC50 [16]: 2.49 µM (active)
IC50 [17]: > 100 µM (inactive)

O=c1c2ccc(F)cc2sn1-c1ccc(Cl)cc1Cl
IC50 [18]: > 100 µM (inactive)
IC50 [19]: 0.534 µM (active)
IC50 [20]: 14.4 µM (active)

C=CCN(CC=C)C(=S)NC(=O)/C=C/c1ccc(C)cc1
IC50 [21]: > 79.4 µM (inactive)
IC50 [22]: > 79.4 µM (inactive)
IC50 [23]: > 79.4 µM (inactive)

Cc1cc(-c2ccc(C)c(S(=O)(=O)N3CCN(c4ccc([N+](=O)[O-])cc4)CC3)c2)on1
IC50 [24]: > 80 µM (inactive)
IC50 [25]: > 20 µM (inactive)
IC50 [26]: 2.42 µM (active)
IC50 [27]: 2.11 µM (active)
EC50 [28]: 2.09 µM (active)
EC50 [29]: > 20 µM (inactive)
IC50 [30]: > 20 µM (inactive)
IC50 [31]: 7.6 µM (inactive)
IC50 [32]: > 20 µM (inactive)
IC50 [33]: 2.36 µM (active)
